This note sets out measurements from ChEMBL document CHEMBL1151696 (Bioorg Med Chem, 2008).

In series [1] the test system is Mammalian orthoreovirus 1. It counts as functional, organism-based.
Series [2] relates to Human alphaherpesvirus 1. It counts as functional, organism-based.
In series [3] the target is Glutamate NMDA receptor (Rattus norvegicus) (UniProt P35439+Q00959+Q00960+Q00961+Q62645+Q8VHN2+Q9R1M7). As to the kind of experiment: (§1) Antagonist activity at NMDA receptor in cerebellar granule neurons assessed as inhibition of glutamate-induced increase in intracellular calcium concentration by fluorometric assay. It counts as functional, cell-based. Background: Calcium flux is commonly read through the fluorescence of an indicator in the cells.

The target in series [4] is Glutamate NMDA receptor. As to the kind of experiment: Antagonist activity at NMDA receptor in cerebellar granule neurons assessed as inhibition of NMDA-induced increase in intracellular calcium concentration by fluorometric assay. It counts as functional, cell-based.
In series [5] the test system is Human alphaherpesvirus 2. It counts as functional, organism-based.
Series [6] deals with Feline coronavirus. It counts as functional, organism-based.
Series [7] deals with Human respirovirus 3. It counts as functional, organism-based.
Series [8] relates to Respiratory syncytial virus. It counts as functional, organism-based.
Series [9] concerns Vesicular stomatitis virus. It counts as functional, organism-based.
The test system of series [10] is Sindbis virus. It counts as functional, organism-based.
In series [11] the test system is Punta Toro virus. It counts as functional, organism-based.
Series [12] has as its system Coxsackievirus B4. It counts as functional, organism-based.
Series [13] deals with Glutamate NMDA receptor. The series is described as §1. It counts as functional, cell-based.
The subject of series [14] is Influenza A virus H3N2. It counts as functional, organism-based, Influenza A virus (A/Hong Kong/7/1987(H3N2)). To be noted: MDCK.
The test system of series [15] is Influenza B virus. It counts as functional, organism-based. Particulars: B/Hong Kong/05/1972, MDCK.
Series [16] can be described thus: Cytotoxicity against MDCK cells by MTS assay. To be noted: dog. It counts as cell-based, Canis lupus familiaris. (Tetrazolium dyes change colour on reduction, which living cells bring about.)
The species named for series [17] is Rattus norvegicus. Nature of the series: Inhibition of [3H]dopamine uptake in Wistar rat striatum synaptosomes at 100 uM by scintillation spectrometry. It counts as functional, subcellular. More on the design: scale not given: the % may be the effect or the level left.
Series [18] has as its system Influenza A virus. Nature of the series: microbe, parasite or virus in culture. To be noted: A/Puerto Rico/8/1934(H1N1), MDCK.
Series [19] relates to Trypanosoma brucei. Nature of the series: Trypanocidal activity against Trypanosoma brucei 427 blood stream after 48 hrs by hemocytometer. It counts as functional, organism-based. To be noted: Trypanosoma brucei, 427, 48 h.
Series [20] relates to Trypanosoma brucei. As to the kind of experiment: Trypanocidal activity against Trypanosoma brucei 427 blood stream at 5 ug/ml after 48 hrs by hemocytometer. It counts as functional, organism-based.

Active and inactive are the calls of the source. The rule behind the calls is not given here.

The term IC50 denotes the concentration needed to halve the response being measured. As usually defined, the EC50 is the concentration giving half of the maximal effect. For orientation: IC90 means the concentration at which the effect reaches the 90% level.

For `CN(Cc1ccccc1)CC12CC3(C)CC1CC3(C)C2`, the outcome in [1], in [2], in [3], in series [5], in series [6] and in [7] was inactive. In addition, the result in [8], in series [9], in [10], in series [11] and in series [12] was inactive. Moreover, the IC50 in [4] was found to be 160 µM.

As for `NC12CC3CC(CC1C3)C2`, the figures for the IC50 in series [13] and in series [4] were over 500 µM and 92 µM, respectively. Also, the EC50 is 26.5 µM in series [14] and 196 µM in series [18]. For the same compound, the outcome in series [15] was inactive. The compound also came in with an MCC in [16] of over 575 µM. The compound also showed an Activity in series [17] of 84.9%.

As to `CC(N)C12CC3(C)CC1CC3(C)C2` (stereo not given), the result in [1], in series [2], in series [5], in series [6], in series [7] and in [8] was inactive. The result in [9], in series [10], in [11] and in series [12] was inactive. For the same compound, the IC50 in series [19] came to 6.02 µM; in series [13] it was 94 µM; in series [4], 37 µM. For the same compound, it took 9.48 µM to reach the 90% level in series [19] (IC90). In series [17], this compound registered an Activity of 72.2%.

As for `CC12CC3CC1(C)CC3(CN)C2`, the result in [1], in [20], in [2], in [5], in series [6] and in series [7] was inactive. The result in series [8], in series [9], in series [10], in [11] and in series [12] was inactive. Also, the IC50 was over 500 µM in series [13] and 128 µM in series [4]. The same compound showed an Activity in [17] of 39.1%.

Regarding `c1csc(CNC23CC4CC(CC2C4)C3)c1`, the result in [1], in [2], in [5], in series [6], in series [7] and in series [8] was inactive. Moreover, the result in series [9], in series [10], in series [11] and in series [12] was inactive. The IC50 in [13] amounted to 384 µM; in series [4] it was 17 µM. Besides, the Activity in series [17] worked out at 47.7%.

With `CN(Cc1ccccc1)CC12CC3CC(CC1C3)C2`, the outcome in series [1], in series [2], in [5], in series [6], in [7] and in series [8] was inactive. Besides, the outcome in [9], in series [10], in series [11] and in [12] was inactive. For the same compound, the values for the IC50 in series [13] and in series [4] were over 500 µM and 178 µM, respectively. Also, the Activity in [17] amounted to 45%.

Turning to `CN(C)C12CC3(C)CC1CC3(C)C2`, the outcome in series [1], in series [20], in [2], in [5], in [6] and in [7] was inactive. Also, the result in [8], in series [9], in [10], in series [11] and in [12] was inactive. In addition, the IC50 in series [13] was found to be 185 µM; in [4], 153 µM. This compound displayed an Activity in series [17] of 75.2%.

As for `COc1cccc(CNC23CC4CC(CC2C4)C3)c1`, the result in series [1], in series [2], in [5], in series [6], in series [7] and in series [8] was inactive. The outcome in series [9], in series [10], in series [11] and in [12] was inactive. Further, the IC50 in series [13] is over 500 µM; in series [4] it was 87 µM. This compound also returned an Activity in series [17] of 45.8%.

Regarding `C1CCN(C23CC4CC(CC2C4)C3)CC1`, the result in series [1], in series [2], in [5], in series [6], in [7] and in [8] was inactive. Also, the outcome in series [9], in series [10], in [11] and in series [12] was inactive. For the same compound, the IC50 was over 500 µM in series [13] and 45 µM in [4]. In addition, the Activity in series [17] is 68.5%.

Turning to `CC12CC3CC1(C)CC3(CNCc1ccccc1)C2`, the outcome in [1], in series [20], in [2], in series [3], in series [5] and in series [6] was inactive. For the same compound, the outcome in series [7], in [8], in series [9], in series [10], in series [11] and in [12] was inactive. In addition, in series [4], the IC50 is 47 µM.

As for `c1ccc(CNCC23CC4CC(CC2C4)C3)cc1`, the outcome in series [1], in series [2], in series [5], in series [6], in series [7] and in [8] was inactive. Also, the outcome in series [9], in series [10], in series [11] and in series [12] was inactive. The IC50 in series [13] was over 500 µM; in [4], 138 µM. Further, in [17], the Activity was found to be 57.9%.

Compound `CC(N)C12CC3CC(CC(C3)C1)C2` (stereo not given) [RIMANTADINE] yielded an IC90 in series [19] of 14 µM. Also, it took 0.85 µM to reach a half-maximal effect in series [14] (EC50). Moreover, the result in series [15] was inactive. Further, the MCC in series [16] was over 100 µM.

As for `CNCC12CC3(C)CC1CC3(C)C2`, the outcome in [1], in [2], in [5], in series [6], in [7] and in series [8] was inactive. Besides, the result in series [9], in [10], in series [11] and in series [12] was inactive. Besides, the half-inhibitory concentration (IC50) in series [13] and in [4] was over 200 µM each time. Besides, the Activity in [17] came out at 57.3%.

Take `NCC12CC3CC(CC1C3)C2`: the outcome in [1], in series [2], in series [5], in [6], in [7] and in [8] was inactive. In addition, the result in [9], in series [10], in series [11], in series [12] and in series [15] was inactive. The IC50 in series [13] and in [4] was over 200 µM throughout. Besides, the EC50 worked out at 52 µM in [14] and 36 µM in [18]. This compound also yielded an MCC in series [16] of over 530 µM. In [17], this compound yielded an Activity of 50.1%.

On to `CC12CC3CC1(C)CC3(N)C2`, for which the result in series [1], in series [2], in series [5], in series [6], in series [7] and in series [8] was inactive. The outcome in series [9], in series [10], in [11] and in series [12] was inactive. In addition, the figures for the concentration for half-maximal inhibition (IC50) in series [13] and in [4] were 274 µM and 23 µM, respectively. The compound also yielded an Activity in series [17] of 54.8%.

With `COc1ccccc1CNC12CC3CC(CC1C3)C2`, the outcome in series [1], in [2], in [5], in [6], in series [7] and in [8] was inactive. The outcome in series [9], in series [10], in series [11] and in series [12] was inactive. The figures for the IC50 in [13] and in [4] were over 500 µM and 92 µM, respectively. In [17], this compound displayed an Activity of 58.3%.
